Results on two molecules are retold here after ChEMBL document CHEMBL4014297, “Discovery of small molecule inhibitors for the snake venom metalloprotease BaP1 using in silico and in vitro tests” (Bioorg Med Chem Lett, 2017).

Activity calls are given as the source filed them. The calls are words filed in the database; no cut-off is given here.

The target in experiment [1] is T1, Snake venom metalloproteinase BaP1 (Bothrops asper) (UniProt P83512).
T1 sequence (whole entry): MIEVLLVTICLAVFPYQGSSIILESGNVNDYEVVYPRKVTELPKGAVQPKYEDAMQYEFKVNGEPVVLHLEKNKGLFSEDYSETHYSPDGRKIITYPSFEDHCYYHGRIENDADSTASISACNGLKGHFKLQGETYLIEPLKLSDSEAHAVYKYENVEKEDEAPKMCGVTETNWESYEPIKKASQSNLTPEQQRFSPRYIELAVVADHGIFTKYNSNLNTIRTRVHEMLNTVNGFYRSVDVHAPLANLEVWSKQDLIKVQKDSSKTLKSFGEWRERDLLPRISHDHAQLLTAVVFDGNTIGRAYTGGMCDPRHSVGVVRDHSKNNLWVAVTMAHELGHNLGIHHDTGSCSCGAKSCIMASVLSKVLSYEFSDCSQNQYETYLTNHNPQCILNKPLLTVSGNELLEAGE
As to the kind of experiment: Binding affinity to Bothrops asper venom metalloprotease BaP1 assessed as red shift by fluorescence spectroscopic method.

The target of experiment [2] is T2, Snake venom metalloproteinase BaP1 (Bothrops asper, UniProt P83512).
T2 sequence (P83512 whole entry): T1 sequence (whole entry)
In words: Binding affinity to Bothrops asper venom metalloprotease BaP1 assessed as Stern-Volmer quenching constant by fluorescence spectroscopic method.

The target in experiment [3] is T1, Snake venom metalloproteinase BaP1 (Bothrops asper). In words: Binding affinity to Bothrops asper venom metalloprotease BaP1 by fluorescence spectroscopic method.
Experiment [4] addresses T2, Snake venom metalloproteinase BaP1. As to the kind of experiment: Inhibition of Bothrops asper venom metalloprotease BaP1 assessed as reduction in proteolytic activity using azocasein as substrate measured after 90 mins by colorimetric method.
Experiment [5] has as its target T1, Snake venom metalloproteinase BaP1 (Bothrops asper). In words: Inhibition of Bothrops asper venom metalloprotease BaP1 assessed as reduction in proteolytic activity at 100 umol/dm3 using azocasein as substrate measured after 90 mins by colorimetric method relative to control.

For the molecule `Cc1ccc(OCC(=O)N/N=C2\C(=O)NC(=O)N=C2O)cc1`, the Activity in experiment [1] turned out to be 11 nm. For the same molecule, the Kd (usually the free concentration of one partner at which half of the binding sites on the other are occupied at equilibrium, for simple one-to-one binding) in experiment [2] stood at 37.1 µM. Besides, the outcome in experiment [3] was Active. The IC50 (as a rule, the concentration that gives 50% inhibition) in experiment [4] came to 20 µM. The inhibition (in general, how much of the control response was suppressed) in experiment [5] stood at 98%.
`CC(C)c1ccc(OCC(=O)N/N=C2\C(=O)NC(=O)N=C2O)cc1`: the Activity in experiment [1] was 7 nm. Besides, in experiment [2], the Kd came to 33.6 µM. Besides, the outcome in experiment [3] was Active. Besides, in experiment [4], the IC50 amounted to 17 µM. The inhibition in experiment [5] was determined as 95%.
